Earlier results, collected in patent US7135196B2, “Iron compositions” (Vitra Pharmaceuticals Limited, priority 2000, dated 2006).

O=C([O-])/C=C/C(=O)[O-].[Fe+2] [fumarate, ferrous fumarate]
solubility in water: poorly and slowly soluble
